The subject of the test is p38. As to the kind of experiment: p38 activation immunoblot in TCC-Sup cells after doxorubicin. The format is cell-based, human. The settings on record: doxorubicin treatment, FIG. 7A. Here is the method:
FIG. 7. Doxorubicin-induced cell death of TCC-Sup carcinoma cells. (A) p38 activation in response to doxorubicin treatment. TCC-Sup cells were seeded and treated with doxorubicin for the indicated time points. After cell lysis, p38 activation was assessed by immunoblotting cell extracts with anti-phospho-p38 antibody and reprobing of the same filters with anti-p38 antibody. (B) Blockade of HB-EGF function enhances cell-death in response to doxorubicin. Cells were treated for 72 h with 10 μM doxorubicin and 10 μg/mL Crm197 every 24 h as indicated. After collection of cells in assay buffer, nuclei were stained with PI and analyzed by flow cytometric analysis.
Cells were lysed and proteins immunoprecipitated as described before (Daub et al., 1997). Prior to lysis, cells grown to 80% confluence were treated with inhibitors and agonists as indicated in the figure legends and then lysed for 10 min on ice in buffer containing 50 mM HEPES, pH 7.5, 150 mM NaCl, 1% Triton X-100, 1 mM EDTA, 10% glycerol, 10 mM sodium pyrophosphate, 2 mM sodium orthovanadate, 10 mM sodium fluoride, 1 mM phenylmethylsulfonyl fluoride, and 10 μg/mL aprotinin. Lysates were precleared by centrifugation at 13,000 rpm for 10 min at 4° C. […] Phosphotyrosine was detected with the 4G10 monoclonal antibody (UBI, Lake Placid, N.Y.). […]
(In general: Immunoblotting shows a protein as a band on a membrane.)

`COc1cccc2c1C(=O)c1c(O)c3c(c(O)c1C2=O)C[C@@](O)(C(=O)CO)C[C@@H]3O[C@H]1C[C@H](N)[C@H](O)[C@H](C)O1` [doxorubicin]: the p38 activation result is “induces p38 activation”.

Source of the values: patent US20060148694A1, “Inhibition of stress-induced ligand-dependent egfr activation” (Max-Planck-Gesellschaft zur Foerderung der Wessenschaften. …, priority 2003, published 2006).
